No end group written: not given here.
B1: mouse TAPL truncation mutant devoid of the N-terminal 142 residues (ΔTMD0) (domain or fragment, UniProt Q9JJ59 143-762, looked up)
chain: DAEALEPGNEGFHGEGGAPAEQASGATLQKLLSYTKPDVAFLVAASFFLIVAALGETFLPYYTGRAIDSIVIQKSMDQFTTAVVVVCLLAIGSSLAAGIRGGIFTLVFARLNIRLRNCLFRSLVSQETSFFDENRTGDLISRLTSDTTMVSDLVSQNINIFLRNTVKVTGVVVFMFSLSWQLSLVTFMGFPIIMMVSNIYGKYYKRLSKEVQSALARASTTAEETISAMKTVRSFANEEEEAEVFLRKLQQVYKLNRKEAAAYMSYVWGSGLTLLVVQVSILYYGGHLVISGQMSSGNLIAFIIYEFVLGDCMESVGSVYSGLMQGVGAAEKVFEFIDRQPTMVHDGSLAPDHLEGRVDFENVTFTYRTRPHTQVLQNVSFSLSPGKVTALVGPSGSGKSSCVNILENFYPLQGGRVLLDGKPIGAYDHKYLHRVISLVSQEPVLFARSITDNISYGLPTVPFEMVVEAAQKANAHGFIMELQDGYSTETGEKGAQLSGGQKQRVAMARALVRNPPVLILDEATSALDAESEYLIQQAIHGNLQRHTVLIIAHRLSTVERAHLIVVLDKGRVVQQGTHQQLLAQGGLYAKLVQRQMLGLEHPLDYTASHKEPPSNTEHKA
notes: mouse TAPL (ABCB9), protein of 762 amino acids, lacking the N-terminal 142 residues (TMD0); Homodimer by the cryo-EM structures; A thrombin site stood between TAPL and eGFP-10XHis; residues of the site may be left at the C-terminus after cleavage; also called ABCB9; TAP-like; source: High Five (Hi5) insect cells, baculovirus; purified (anti-GFP DARPin agarose, on-column thrombin cleavage, gel …)

Key:
mouse TAPL ΔTMD0 [1] = biological target: T1, mouse TAPL ΔTMD0 (Mus musculus, UniProt Q9JJ59); assay: Lipid-stimulated ATPase assay, DM-purified ΔTMD0; format: biochemical
T1 construct: thrombin cleavage site (C); eGFP (C); 10XHis (C); made in house; host or cells: Trichoplusia ni High Five (Hi5) insect cells, baculovirus (pVL1393)
T1 sequence (Q9JJ59 143-762): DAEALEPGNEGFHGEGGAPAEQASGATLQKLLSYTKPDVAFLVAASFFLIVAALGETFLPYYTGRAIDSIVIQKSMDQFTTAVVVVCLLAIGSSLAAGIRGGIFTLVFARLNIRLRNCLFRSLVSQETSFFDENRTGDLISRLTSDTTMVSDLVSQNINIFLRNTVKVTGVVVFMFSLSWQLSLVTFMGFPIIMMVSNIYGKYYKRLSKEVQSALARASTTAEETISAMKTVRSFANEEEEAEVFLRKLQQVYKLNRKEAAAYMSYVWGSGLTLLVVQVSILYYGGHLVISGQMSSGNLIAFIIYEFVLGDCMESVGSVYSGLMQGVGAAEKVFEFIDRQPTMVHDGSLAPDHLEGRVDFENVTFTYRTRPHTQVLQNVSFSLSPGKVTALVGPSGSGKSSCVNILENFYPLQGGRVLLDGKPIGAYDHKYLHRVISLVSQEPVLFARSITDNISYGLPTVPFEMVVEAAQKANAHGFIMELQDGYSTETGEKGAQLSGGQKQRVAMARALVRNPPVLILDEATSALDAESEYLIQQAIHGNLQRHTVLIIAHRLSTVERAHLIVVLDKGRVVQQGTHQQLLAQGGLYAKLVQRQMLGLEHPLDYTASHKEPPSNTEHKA
Method: (§1) The ATPase activities of proteins obtained after various purification procedures were determined by NADH-coupled spectrophotometric assays. 10 μg of DM-purified or nanodisc-reconstituted protein was added to 140 μL of reaction buffer containing 50 mM HEPES–KOH pH 8.0, 60 μg/mL pyruvate kinase (Roche), 16 μg/mL lactate dehydrogenase (Roche), 10 mM phosphoenolpyruvate (Roche), 0.3 mM NADH, 3 mM ATP, 10 mM MgCl2, and 0.17% (w/v) DM in the presence or absence of 250 μM peptide. For proteins reconstituted into nanodiscs, DM was not added to the reaction buffer. For lipid-stimulated ATPase assays, the thin film of lipids was hydrated in 100 μL of buffer containing 50 mM HEPES–KOH pH 8.0 and 10 mM MgCl2 to yield a 10 mM solution. After sonication of the lipid solution for 10 min to decrease its turbidity, the reaction was initiated by adding varying concentrations of lipids to the mixture. ATP hydrolysis activity was monitored at 37 °C for 3 min by measuring the rate of decline of NADH absorbance at 340 nm. To inhibit ATP hydrolysis, the reaction mixture was incubated with 3 mM AMP-PNP or 8 mM NaF/2 mM BeSO4 for 5 min at RT. The kinetic parameters of ATP hydrolysis were calculated by fitting the initial rates of ATP hydrolysis to the Michaelis–Menten equation using PRISM 4.0 (GraphPad software).

TAPL Y405A mutant = biological target: T2, TAPL Y405A mutant (Mus musculus, UniProt Q9JJ59, Y405A); assay: Lipid-stimulated ATPase assay, DM-purified Y405A mutant; format: biochemical; conditions: Y405A vs WT
T2 construct: thrombin cleavage site (C); eGFP (C); 10XHis (C); made in house; host or cells: Trichoplusia ni High Five (Hi5) insect cells, baculovirus (pVL1393)
T2 sequence (Q9JJ59 143-762 Y405A): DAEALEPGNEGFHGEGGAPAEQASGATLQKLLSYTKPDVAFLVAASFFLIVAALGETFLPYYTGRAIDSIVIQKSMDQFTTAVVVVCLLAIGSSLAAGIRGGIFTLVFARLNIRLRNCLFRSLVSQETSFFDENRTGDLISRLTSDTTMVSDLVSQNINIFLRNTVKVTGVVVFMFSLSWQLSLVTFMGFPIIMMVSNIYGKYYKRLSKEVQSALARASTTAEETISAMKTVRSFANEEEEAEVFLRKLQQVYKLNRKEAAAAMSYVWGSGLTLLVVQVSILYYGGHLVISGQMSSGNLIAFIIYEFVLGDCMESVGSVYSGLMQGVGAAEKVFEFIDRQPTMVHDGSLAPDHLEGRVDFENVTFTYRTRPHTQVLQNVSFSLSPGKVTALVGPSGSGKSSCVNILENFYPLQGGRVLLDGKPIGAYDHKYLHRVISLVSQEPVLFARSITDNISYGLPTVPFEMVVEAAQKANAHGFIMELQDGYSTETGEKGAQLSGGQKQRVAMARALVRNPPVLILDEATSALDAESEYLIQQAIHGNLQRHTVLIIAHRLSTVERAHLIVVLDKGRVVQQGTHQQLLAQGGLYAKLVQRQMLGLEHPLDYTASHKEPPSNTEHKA
Method: as §1

mouse TAPL ΔTMD0 [2] = biological target: T1, mouse TAPL ΔTMD0; assay: Dithionite-based flip-flop (floppase) assay of NBD*-labeled lipids, ΔTMD0 proteoliposomes; format: biochemical; conditions: 10% (mol/mol) unlabeled POPS, or presence of the 9-mer peptide
Method: All lipids used in reconstitution were purchased from Avanti Polar Lipids, Inc. (purity > 99%). The in vitro flip–flop assay was performed using NBD* dye-labeled proteoliposomes as described previously. Briefly, E. coli polar lipids and egg PC were mixed in a 1:1 molar ratio, and 0.5% (mol/mol) NBD*-lipid was added. The lipid mixture was then dried under nitrogen gas. The NBD*-lipids used were 18:1-06:0 NBD*-PS (1-oleoyl-2-{6-[(7-nitro-2-1,3-benzoxadiazol-4-yl)amino]hexanoyl}-sn-glycero-3-phosphoserine), 18:1-06:0 NBD*-PC (1-oleoyl-2-{6-[(7-nitro-2-1,3-benzoxadiazol-4-yl)amino]hexanoyl}-sn-glycero-3-phosphocholine), 18:1-06:0 NBD*-PG (1-oleoyl-2-{6-[(7-nitro-2-1,3-benzoxadiazol-4-yl)amino]hexanoyl}-sn-glycero-3-[phospho-rac-(1-glycerol)]), 18:1-06:0 NBD*-PE (1-oleoyl-2-{6-[(7-nitro-2-1,3-benzoxadiazol-4-yl)amino]hexanoyl}-sn-glycero-3-phosphoethanolamine), and 25-NBD*-Cholesterol (25-[N-[(7-nitro-2-1,3-benzoxadiazol-4-yl)methyl]amino]−27-norcholesterol). Thin lipid films were solubilized in 20 mM HEPES–NaOH pH 8.0, 200 mM NaCl and 5% (v/v) glycerol, incubated at RT for 30 min and subjected to 5 freeze–thaw cycles. After extrusion with a Mini-Extruder at 65 °C, final lipid concentrations were determined by phosphorus assays. Briefly, 10 μL of extruded lipid was added to 10 μL of 2% (w/v) ammonium molybdate and 300 μL of concentrated perchloric acid. The mixture was heated at 250 °C for 30 min, then cooled to RT and mixed with 1.5 mL of 0.4% (w/v) ammonium molybdate and 250 μL of 9% (w/v) L-ascorbic acid. It was again heated at 100 °C for 6 min and cooled to RT. Lipid concentrations were calculated from the absorbance at 820 nm using a standard curve prepared with NaH2PO4 solution. After accurately determining the lipid concentration, DM-purified protein and 5 mM lipid suspension (solubilized in 5 mM DM) were mixed 1:25 (w/w). After incubation at 4 °C for 1.5 h, DM detergent was removed with 75 mg Bio-beads SM-2 by periodic gentle shaking for 1 h at 4 °C (Supplementary Fig. 5a). The beads were replaced once, followed by an additional incubation at 4 °C for 2 h to completely remove detergent. The resulting proteoliposomes were collected by ultracentrifugation at 200,000×g for 1.5 h at 4 °C.
To measure the flip–flop activity, 10 μL of 2 mM NBD*-labeled proteoliposomes were added to 100 μL of reaction buffer (20 mM HEPES–NaOH pH 8.0, 200 mM NaCl, 5 mM ATP and 5% (v/v) glycerol) in the presence of 2 mM MgCl2 (or NaCl), and incubated at 37 °C for 1 h. The mixture was transferred to a 96-well plate and time-dependent fluorescence (λex/λem = 460/538 nm) was recorded every 30 s for 26 min using a fluorescence spectrophotometer (Gemini XPS). After the baseline fluorescence had stabilized, 10 mM sodium dithionite was added to quench the fluorescence of NBD*-lipid present in the outer leaflets of the liposomes. The initial rapid drop and subsequent slow decline in fluorescence intensity were monitored. When a new steady state was established, 1% (v/v) Triton X-100 was added to completely disrupt the liposomes. The net percentage of NBD*-lipid translocated across the lipid bilayer was calculated from the following equation[72]: the percentage of protected NBD*-lipid in the inner leaflet = [(FD−F0)/(FT−F0)]×100, and that of accessible NBD*-lipid in the outer leaflet = [(FT−FD)/(FT−F0)]×100, where FT is the total fluorescence of the sample before the addition of dithionite, FD is the fluorescence of the sample after quenching with dithionite, and F0 is any residual fluorescence of the sample after solubilization with Triton X-100. Fluorescence values (FT, FD, F0) were calculated as the averages of 5 points on the respective plateau lines. The ΔTMD0-mediated lipid floppase activity was determined by subtracting the percentage of NBD*-lipid fluorescence measured in the presence of Na^+/ATP from that measured in the presence of Mg^2+/ATP.

mouse TAPL ΔTMD0 [3] = biological target: T1, mouse TAPL ΔTMD0; assay: NADH-coupled ATPase assay, DM-purified ΔTMD0; format: biochemical; conditions: in the presence of 9-mer peptide
Method: as §1

[4] = biological target: the molecule itself; assay: cryo-EM structure; ΔTMD0 in nanodiscs of E. coli polar lipids, no peptides or nucleotides; inward-facing, 3.4 Å
[5] = biological target: T3, mouse TAPL ΔTMD0 Y405A mutant (mouse, UniProt Q9JJ59 143-762, Y405A); assay: MST; 0.2 μM Cy5-labeled peptide with serial 2-fold dilutions of DM-purified protein, 10 min at RT; Monolith NT.115 pico; conditions: both partners purified
T3 construct: mouse TAPL (ABCB9) lacking the N-terminal 142 residues (TMD0), with Y405A; source: High Five (Hi5) insect cells, baculovirus; DM-purified; not shown: eGFP, C-terminal, cleaved; His10, C-terminal, cleaved
T3 sequence (looked up): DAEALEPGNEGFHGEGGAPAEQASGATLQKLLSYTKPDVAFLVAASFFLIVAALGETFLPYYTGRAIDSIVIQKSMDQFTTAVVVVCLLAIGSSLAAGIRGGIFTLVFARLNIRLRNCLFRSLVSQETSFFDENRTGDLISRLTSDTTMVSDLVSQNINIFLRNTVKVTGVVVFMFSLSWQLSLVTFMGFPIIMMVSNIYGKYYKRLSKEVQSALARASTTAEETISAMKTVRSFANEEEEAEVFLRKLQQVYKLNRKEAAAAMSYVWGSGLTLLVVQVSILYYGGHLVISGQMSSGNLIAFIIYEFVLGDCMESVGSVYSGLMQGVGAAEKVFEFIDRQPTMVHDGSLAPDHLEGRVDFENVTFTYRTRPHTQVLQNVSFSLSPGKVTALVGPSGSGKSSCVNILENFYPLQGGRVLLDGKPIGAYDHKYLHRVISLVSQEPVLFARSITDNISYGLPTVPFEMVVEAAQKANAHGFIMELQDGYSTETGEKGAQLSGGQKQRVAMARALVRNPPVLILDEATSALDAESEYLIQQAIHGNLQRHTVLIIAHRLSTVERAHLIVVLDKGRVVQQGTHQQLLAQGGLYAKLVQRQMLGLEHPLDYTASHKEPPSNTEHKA

[6] = biological target: B1; assay: as above; conditions: both partners purified
[7] = biological target: B1; assay: cryo-EM structure; DM/CHS-purified ΔTMD0 with 1 mM 9-mer peptide, on ice for 30 min; inward-facing, 4.0 Å; conditions: both partners purified
[8] = lipid stimulation, 3 mM ATP, means ± SEM

CC(C)CCC[C@@H](C)[C@H]1CC[C@H]2[C@@H]3CC=C4C[C@@H](OC(=O)CCC(=O)O)CC[C@]4(C)[C@H]3CC[C@]12C [CHS, cholesteryl hemisuccinate]
Vmax relative to POPG-stimulated ATPase activity (mouse TAPL ΔTMD0 [1]; CHS vs POPG): ~ 51% | maximal ATPase activity (turnover) (mouse TAPL ΔTMD0 [1]; lipid stimulation, 3 mM ATP): 80 min⁻¹ | Km (mouse TAPL ΔTMD0 [1]; [8]): 127 ± 28 µM | maximal ATPase activity (Vmax) (mouse TAPL ΔTMD0 [1]; [8]): 589 ± 18 nmol/mg/min | response of Y405A ATPase to lipid (TAPL Y405A mutant): significantly reduced basal and lipid-stimulated ATPase activity

CCCCCCCC/C=C\CCCCCCCC(=O)O[C@H](COC(=O)CCCCCCCCCCCCCCC)COP(=O)(O)OC[C@H](N)C(=O)O [POPS, 1-palmitoyl-2-oleoyl-sn-glycero-3-phospho-l-serine]
effect on translocation of NBD*-PS (mouse TAPL ΔTMD0 [2]): significantly inhibited | maximal ATPase activity (turnover) (mouse TAPL ΔTMD0 [1]; lipid stimulation, 3 mM ATP): 109 min⁻¹ | maximal ATPase activity (Vmax) (mouse TAPL ΔTMD0 [1]; [8]): 808 ± 44 nmol/mg/min | response of Y405A ATPase to lipid (TAPL Y405A mutant): significantly reduced basal and lipid-stimulated ATPase activity

ADP·BeF3
ATP hydrolysis in presence of ATP analogs (mouse TAPL ΔTMD0 [3]): prevented ATP hydrolysis

B1
stoichiometry N [4]: 2

B2: Cy5-labeled 9-mer peptide RRYQNSTC(Cy-5)L (peptide)
peptide: RRYQNSTC(Cy5)L
notes: synthetic 9-mer peptide with a single cysteine for labeling; also called Cy5-labeled peptide; source: synthetic peptide (ANYGEN Co., Ltd.), labeled with Cy5, desalted
Kd [5]: 3800 nM | Kd [6]: 51.9 nM

B3: 9-mer peptide RRYQKSTEL (peptide)
peptide: RRYQKSTEL
notes: short synthetic peptide known to be transported by human TAPL; source: synthetic peptide (ANYGEN Co., Ltd.)
binding result [7]: binds
